The numbers were not newly measured in patent US20230390244A1, “MODIFIED RELEASE COMPOSITIONS COMPRISING MELATONIN” (Inventia Healthcare Limited, priority 2020, published 2023), which cites them from elsewhere.

Assay in data set [1]: not given
The source holds these as a separate data set.

One may read the half-life as how long it takes for the measured level to halve. `COc1ccc2[nH]cc(CCNC(C)=O)c2c1` [Melatonin, N-acetyl-5-methoxytryptamine]: where the note is “acetone, ethyl acetate and methanol”, the “solubility in organic solvents” value is reported as “soluble”. For the same compound, the solubility in water result (water) is listed as “slightly soluble”. The “time within which plasma concentrations decline” value in data set [1] (immediate-release formulation, depending on dose) was at most 1.5 h. Moreover, the half-life in data set [1] (in vivo) was 40 to 50 min.
